Assay results reported in paper PMC12102759 (Protein Science : A Publication of the Protein Society, 2025).

tested on: G3BP1 NFT2; assay type: binding, human; conditions: library DMS-CoV; bait G3BP1 NFT2; prey N; peptide APRITFGGPSDSTGSN; listed as aa = residue placed at this position; column sums to 1

Sequence	DMS PSSM value, I (position 4)	DMS PSSM value, S (position 15)	DMS PSSM value, G (position 8)	DMS PSSM value, G (position 7)
APRITFGGPSDSTGSN I4L (APRLTFGGPSDSTGSN)	0			
APRITFGGPSDSTGSN I4D (APRDTFGGPSDSTGSN)	0			
APRITFGGPSDSTGSN S15K (APRITFGGPSDSTGKN)		0.0001786		
APRITFGGPSDSTGSN G8F (APRITFGFPSDSTGSN)			0	
APRITFGGPSDSTGSN G7F (APRITFFGPSDSTGSN)				0

same assay, conditions: library DMS-CoV; bait G3BP1 NFT2; prey N; peptide RNAPRITFGGPSDSTG; listed as aa = residue placed at this position; column sums to 1

Sequence	DMS PSSM value, D (position 13)	DMS PSSM value, F (position 8)	DMS PSSM value, T (position 15)	DMS PSSM value, S (position 12)	DMS PSSM value, G (position 10)	DMS PSSM value, T (position 7)	DMS PSSM value, N (position 2)	DMS PSSM value, P (position 11)	DMS PSSM value, I (position 6)	DMS PSSM value, G (position 16)
RNAPRITFGGPSDSTG D13Q (RNAPRITFGGPSQSTG)	0									
RNAPRITFGGPSDSTG F8K (RNAPRITKGGPSDSTG)		0								
RNAPRITFGGPSDSTG T15I (RNAPRITFGGPSDSIG)			1							
RNAPRITFGGPSDSTG T15Q (RNAPRITFGGPSDSQG)			0							
RNAPRITFGGPSDSTG S12F (RNAPRITFGGPFDSTG)				0						
RNAPRITFGGPSDSTG G10M (RNAPRITFGMPSDSTG)					0					
RNAPRITFGGPSDSTG T7I (RNAPRIIFGGPSDSTG)						0				
RNAPRITFGGPSDSTG N2Y (RYAPRITFGGPSDSTG)							0			
RNAPRITFGGPSDSTG F8I (RNAPRITIGGPSDSTG)		0								
RNAPRITFGGPSDSTG P11M (RNAPRITFGGMSDSTG)								0		
RNAPRITFGGPSDSTG D13I (RNAPRITFGGPSISTG)	0									
RNAPRITFGGPSDSTG P11W (RNAPRITFGGWSDSTG)								0		
RNAPRITFGGPSDSTG N2W (RWAPRITFGGPSDSTG)							0			
RNAPRITFGGPSDSTG D13N (RNAPRITFGGPSNSTG)	0									
RNAPRITFGGPSDSTG I6K (RNAPRKTFGGPSDSTG)									0	
RNAPRITFGGPSDSTG G16W (RNAPRITFGGPSDSTW)										0
RNAPRITFGGPSDSTG T15K (RNAPRITFGGPSDSKG)			0							
RNAPRITFGGPSDSTG D13L (RNAPRITFGGPSLSTG)	0									

Sequence	DMS PSSM value, D (position 13)	DMS PSSM value, F (position 8)	DMS PSSM value, T (position 15)	DMS PSSM value, S (position 12)	DMS PSSM value, G (position 10)	DMS PSSM value, T (position 7)	DMS PSSM value, N (position 2)	DMS PSSM value, P (position 11)	DMS PSSM value, I (position 6)	DMS PSSM value, G (position 16)
RNAPRITFGGPSDSTG G16I (RNAPRITFGGPSDSTI)										0
RNAPRITFGGPSDSTG S12I (RNAPRITFGGPIDSTG)				0						
RNAPRITFGGPSDSTG N2H (RHAPRITFGGPSDSTG)							0			
RNAPRITFGGPSDSTG I6G (RNAPRGTFGGPSDSTG)									0	
RNAPRITFGGPSDSTG T7D (RNAPRIDFGGPSDSTG)						0				
RNAPRITFGGPSDSTG N2S (RSAPRITFGGPSDSTG)							0.05861			
RNAPRITFGGPSDSTG G10L (RNAPRITFGLPSDSTG)					0					
RNAPRITFGGPSDSTG D13S (RNAPRITFGGPSSSTG)	0									
RNAPRITFGGPSDSTG N2D (RDAPRITFGGPSDSTG)							0.4666			
RNAPRITFGGPSDSTG G16R (RNAPRITFGGPSDSTR)										0
RNAPRITFGGPSDSTG G16D (RNAPRITFGGPSDSTD)										0
RNAPRITFGGPSDSTG T7M (RNAPRIMFGGPSDSTG)						0				
RNAPRITFGGPSDSTG T15W (RNAPRITFGGPSDSWG)			0							
RNAPRITFGGPSDSTG G16M (RNAPRITFGGPSDSTM)										0
RNAPRITFGGPSDSTG G10Y (RNAPRITFGYPSDSTG)					0					
RNAPRITFGGPSDSTG T15S (RNAPRITFGGPSDSSG)			0							
RNAPRITFGGPSDSTG G10W (RNAPRITFGWPSDSTG)					0					
RNAPRITFGGPSDSTG F8P (RNAPRITPGGPSDSTG)		0								

same assay, conditions: library DMS-CoV; bait G3BP1 NFT2; prey N; peptide RNAPRITFGGPSDSTG; listed as aa = residue placed at this position; column sums to 1

Sequence	DMS PSSM value, A (position 3)	DMS PSSM value, S (position 14)	DMS PSSM value, G (position 9)
RNAPRITFGGPSDSTG A3T (RNTPRITFGGPSDSTG)	0		
RNAPRITFGGPSDSTG S14R (RNAPRITFGGPSDRTG)		0	
RNAPRITFGGPSDSTG A3Y (RNYPRITFGGPSDSTG)	0		
RNAPRITFGGPSDSTG G9Y (RNAPRITFYGPSDSTG)			0
